# Data: patent US20220202811A1, “TREATMENT FOR RETINOIC ACID RECEPTOR-RELATED ORPHAN RECEPTOR Ɣ (RORƔ)-DEPENDENT CANCERS” (The Regents of the University of California, priority 2019, published 2022)
# Assays:
# [1] = tested on: Fast Growing (FG) cells; experiment: Fast Growing (FG) cell xenografts in mice; assay type: in vivo, human
# Description: FIG. 45 is a compilation of all data from mice bearing PDX or FG cancer xenographs, including PDX1424, PDX1444, and FG.
# [2] = tested on: tumor-bearing KP^f/fC mice; experiment: tumor-bearing KP^f/fC mice in vivo (AZD-0284, JTE-151); parameters: species or system mouse
# Experimental: Next, the impact of JTE-151 was tested on tumor-bearing KP^f/fC mice in vivo. FIG. 51 is a schematic of the experimental design. KP^f/fC mice were allowed to develop tumors, then the tumor-bearing mice received vehicle or JTE-151, followed by analysis of the tumors at the end of the experiments. Different doses of JTE-151, i.e., at 30 mg/kg, 90 mg/kg, and 120 mg/kg body weight, were tested.
# FIGS. 53-56 show examples of individual experiments where tumor-bearing KP^f/fC mice was treated with either vehicle or 90 mg/kg JTE-151 for 3 weeks in regimens as specified in the figures. For example, in FIGS. 53 and 55, the mice received 90 mg/kg JTE-151 once daily for 3 weeks. In FIG. 54, the mice received 90 mg/kg JTE-151 once daily for 1 week, followed by twice daily for another 2 weeks. At the end of each experiment, tumors were analyzed for different parameters including tumor mass, cell number, EpCAM positivity, CD133 positivity, EpCAM/CD133 positivity, cellularity, and IL-17 level. […] It was not clear whether the initial tumor size of the non-responder mouse was unusually large due to variances between different mice.
# Similarly, the anti-cancer effect of JTE-151 was tested on tumor-bearing KP^f/fC mice in vivo at a higher dose of 120 mg/kg (FIGS. 59-61 showing three individual experiments). For each experiment, one mouse was given vehicle treatment, and another mouse was given the JTE-151 regimen as specified in the figures. For example, in FIG. 59, the JTE-151 mouse received 120 mg/kg body weight of JTE-151 for 2 weeks and then 90 mg/kg JTE-151 for 1 week. In the first 1.5 weeks, JTE-151 was given once daily, and in the second 1.5 weeks, JTE-151 was given twice daily. As previously, at the end of each experiment, tumors were analyzed for different parameters including cell number, EpCAM positivity, EpCAM/CD133 positivity, and IL-17 level. In each of FIGS. 59-61, the horizontal axis of each graph represents the target (vehicle vs. JTE-151 mouse), and the vertical axis represents the specified measurement.
# [3] = tested on: primary patient-derived PDX204 pancreatic cancer cells; experiment: PDX204 organoid assay; assay type: cell-based, human
# Experimental: Moreover, the anti-cancer effect of JTE-151 was determined in an organoid assay using pancreatic cancer cells derived from mice bearing primary patient-derived xenografts.
# [4] = tested on: PDX1535 xenograft; experiment: PDX1535 xenografts in mice; assay type: in vivo, human; settings: JTE-151 90 mg/kg once per day
# Description: (§1) Finally, the impact of JTE-151 was examined in vivo on mice bearing primary patient-derived pancreatic cancer xenografts (FIGS. 70-78). […] FIGS. 70-72 show 3 rounds of treatment in an experiment using mice bearing PDX1356 xenographs. The horizontal axis of the first panel in each of FIGS. 70-72 represents days of treatment, and the vertical axis represents tumor volume. The horizontal axis of each of the remaining panels represents the target (vehicle vs. JTE-151 mouse), and the vertical axis represents the specified measurement. JTE-151 was given at the regimen as specified in the figures. For example, in the first round (FIG. 70), JTE-151 was given at 90 mg/kg body weight once per day for the first 25 days, then twice per day from day 26 though day 40.
# (§2) Two other primary patient-derived xenografts, PDX1535 (FIGS. 74 and 75) and PDX1424 (FIGS. 76 and 77), were tested using JTE-151 at 90 mg/kg once per day. […] Considering the reduced tumor mass and cell numbers, the absence of a significant change in tumor volume may be due to necrotic cells that remained for a while post drug treatment.
# [5] = tested on: primary patient-derived xenografts; experiment: compilation of primary patient-derived xenografts, JTE-151; assay type: in vivo, human; settings: JTE-151 vs vehicle, compilation (FIG. 78)
# Description: as §1, §2
# [6] = tested on: pancreatic cancer cell; experiment: in vivo tumor growth, antagonists of Table 2; parameters: species or system mouse; settings: extent of growth suppression relative to control
# [7] = tested on: LuCA KP lung cancer cells; experiment: lung cancer tumor sphere formation; assay type: cell-based; settings: 0.3 μM, 0.6 μM, 1 μM, and 1.2 μM; relative to control
# Description: Then the number of formed tumor spheres were counted and quantified as relative to control.
# [8] = AZD-0284 in combination with gemcitabine
# [9] = 90 mg/kg JTE-151, 3 weeks, compilation (FIG. 57)
# [10] = 120 mg/kg JTE-151 regimen, mice that responded
structure (smiles),measurement,setting,value
CC(=O)N1Cc2cc(S(C)(=O)=O)ccc2[C@@H]1C(=O)Nc1ccc(C(O)(C(F)(F)F)C(F)(F)F)cc1 [AZD-0284],EpCam+/CD133+ tumor stem cells,[1]; 90 mg/kg AZD-0284,decrease
same,total cell number,[1]; 90 mg/kg AZD-0284,decrease
same,EpCam+/CD133+ tumor stem cells,[1]; [8],decrease
same,total cell number,[1]; [8],decrease
"Cc1ccc(NC(=O)C[C@H](CCC(=O)O)c2noc([C@H]3C[C@@H](CC(C)(C)C)C3)c2C2CC2)c(Cl)c1 [JTE-151, (4S)-6-[(2-chloro-4-methylphenyl)amino]-4-{4-cyclopropyl-5-[cis-3-(2,2-dimethylpropyl)cyclobutyl]isoxazol-3-yl}-6-oxohexanoic acid]",EpCam+/CD133+ tumor stem cells,[2]; 30 mg/kg JTE-151 once daily for about 3 weeks (FIG. 52),loss
same,mice that did not show a response,[2]; 90 mg/kg JTE-151 (FIG. 56),1 out of 5
same,EpCam+/CD133+ tumor stem cells,[2]; [9],loss
same,tumor mass,[2]; [9],reduced
same,tumor mass,"[2]; 90 mg/kg JTE-151, 3 weeks, individual experiments (FIGS. 53-55)",reduced
same,mice that responded to the drug,[2]; 120 mg/kg JTE-151 regimen (FIGS. 59-61),At least two of the three mice
same,EpCam+ tumor epithelial cells,[2]; [10],loss
same,EpCam+/CD133+ tumor stem cells,[2]; [10],loss
same,EpCam+/CD133+ tumor stem cells,"[2]; JTE-151 at either 30 mg/kg or 90 mg/kg, 3 weeks (FIG. 58)",loss
same,organoid growth,[3]; 3 μM JTE-151 alone,inhibited
same,organoid growth,[3]; 3 μM JTE-151 in combination with 0.05 nM gemcitabine,inhibited
same,EpCam+ tumor epithelial cells,[4],trend of decreased
same,EpCam+/CD133+ tumor stem cells,[4],trend of decreased
same,total cell counts,[4],trend of decreased
same,tumor mass,[4],trend of decreased
same,tumor volume or growth rate,[4],did not exhibit any significant difference
same,EpCam+ tumor epithelial cells,[5],significantly reduced
same,EpCam+/CD133+ tumor stem cells,[5],significantly reduced
same,cell number,[5],significantly reduced
same,tumor mass,[5],significantly reduced
OC(c1ccc(-c2ccc(CN3CCN(Cc4ccncc4)CC3)cc2)c(F)c1)(C(F)(F)F)C(F)(F)F [SR2211],in vivo tumor growth,[6],✓✓ (dose response observed; growth suppressed by less than 4-fold relative to control)
same,tumor sphere formation,[7],significantly reduced
